# Entries after “also recorded” stand apart in the source; their conditions may differ. Read-outs that look alike come from different tables or passages of the source.
# Key:
# [1] = system: mallotoxin DMR signal in HT29 cells; test: DMR modulation index against the mallotoxin DMR signal in HT29 cells; format: cell-based, human
# From the text: (§1) A “molecule modulation index” or like terms is an index to display the ability of the molecule to modulate the biosensor output signals of the panels of markers acting on the panel of cells. The modulation index is generated by normalizing a specific biosensor output signal parameter of a response of a cell upon stimulation with a marker in the presence of a molecule against that in the absence of any molecule.
# (§2) Epic® wavelength interrogation system (Corning Inc., Corning, N.Y.) was used for whole cell sensing. This system consists of a temperature-control unit, an optical detection unit, and an on-board liquid handling unit with robotics. The detection unit is centered on integrated fiber optics, and enables kinetic measures of cellular responses with a time interval of ˜15 sec.
# (§3) Cells were plated in 384-well Epic® cell culture treated plate (Corning Cat#5040) 16-20 hours before assay (15000 cells/well for HEK293 and HEK-hERG cells, 30000 cells/well for HT29 cells). For both HEK-hERG and its parental HEK293 cells, each well was coated with 10 μl 5 μg/ml fibronectin. One hour before assay, cells were washed twice on a BioTek ELx405 Select washer with Hank's Balanced Salt Solution (HBSS) containing 20 mM Hepes. Cells were incubated in 40 μl/well HBSS at 28° C. inside the Epic system for one hour. For each assay, a 2-min baseline was initiated, followed by addition of 10 μl compound solutions (5×) and the cell responses were recorded continuously for one hour.
# (§4) All studies were carried out at a controlled temperature (28° C.). At least two independent sets of experiments, each with at least three replicates, were performed. […] All dose-dependent responses were analyzed using non-linear regression method with the GraphPad Prism 5.
# (§5) The DMR modulation index was generated by normalizing the mallotoxin DMR signal in either cell line in the presence of compound […] to its corresponding DMR signal in the absence of the compound, and the percentage of modulation was based on the amplitude of the mallotoxin DMR signal at a specific time (−18 min after stimulation for HEK-hERG cells, and ˜50 min after stimulation for HT29 cells, respectively). Mallotoxin is known to display polypharmacology. It is also known to be a protein kinase C (PKC) inhibitor; and PKC is a downstream signaling component of hERG activation. Thus, it would be difficult or almost impossible to assign the mode(s) of action of mallotoxin to be a hERG activator when either cell line is individually assayed with the label-free biosensor (i.e., Epic® system). […] However, combining the primary DMR profiles of a compound across the three cell lines tested with the modulation index of the compound against the mallotoxin responses in both HT29 and […] cells can correctly identify whether the compound is a hERG activator or not. The results shown in FIG. 1 indicate that indeed mallotoxin is a hERG activator; and the activation of hERG can result in detectable biosensor responses in the two hERG expressing cell lines.
# hERG channel [2] = biological target: T1, hERG channel (Homo sapiens, UniProt Q12809); test: Rb+ flux assay using HEK-hERG cells; settings: for effect on hERG ion flux (Rb+ flux, FIG. 6): HEK-hERG cells, overall statement, KCl and concentration not specified
# Protocol: Briefly, 50,000 cells per well were plated in 96-well tissue culture treated plates 20 hours before assay. In the next day, cells were incubated with complete cell culture medium containing 5 mM RbCl for 3 hours at 37° C. with 5% CO2. Then compounds (10×) diluted in HBSS were added into the cell culture medium and cells were incubated at 37° C. with 5% CO2 for another hour. Cells were washed twice with Rb^+ free cell culture medium and incubated with 180 μl/well of cell culture medium containing different concentration of KCl for exactly 10 minutes. The supernatant from each well was transferred to a new 96 well plate immediately. Cells were lysed with 180 μl/well 0.5% Triton-100 in HBSS. The Rb^+ concentration of each sample was determined by ICR8000 (Aurora Biomed Inc.).
# [3] = system: hERG channel or hERG-associated signaling complex; test: Classification of hERG modulators by label-free biosensor profiles across three cell lines plus mallotoxin modulation index; format: cell-based, human
# From the text: The traditional hERG ion channel assay involves assaying ion flux such as Rb^+ flux using ion absorption assays, or assaying hERG currents directly using patch clamping methods. Traditionally, a molecule which causes increase in Rb^+ flux and/or hERG currents is referred to a hERG activator, while a molecule which inhibits Rb^+ flux and/or hERG currents is referred to a hERG inhibitor. […] These hERG activators may or may not result in detectable biosensor signals in cells, using label-free biosensor cellular assays. A hERG activator that results in a detectable biosensor signal in a hERG expressing cell via hERG or hERG signaling complex is also referred to a label-free biosensor hERG activator.
# Disclosed are methods of classifying a molecule for modulating hERG activity, comprising the steps: a. incubating a molecule individually with at least three different types of cells consisting of a native cell endogenously expressing hERG, an engineered cell stably expressing hERG and its parental cell without expressing hERG, and b. monitoring the molecule induced cellular response on each cell type with a label-free biosensor cellular assay,
# Also disclosed are methods, further comprising as steps c) incubating a label-free biosensor hERG activator with each cell type in the presence of the molecule, d. monitoring the label-free biosensor hERG activator induced cellular response on each cell type in the presence of the molecule, e. generating a biosensor modulation index of the molecule against the label-free biosensor hERG activator induced biosensor signals in the two hERG expressing cell types.
# as §5
# HEK-hERG cells = test: Label-free RWG biosensor (Epic) DMR assay, agonism mode, HEK-hERG cells stably expressing hERG; format: cell-based, human
# Protocol: as §2, §3, §4
# (§6) Three different types of cells: human colon cancerous cell line HT-29, HEK293 and its engineered HEK-hERG cell lines were used. HT-29 is known to endogenously express hERG channels. HEK293 is a native cell line without endogenously expressed hERG channels, while HEK-hERG is an engineered HEK293 cells having stably expressed hERG channels. Mallotoxin, a newly discovered hERG activator, was used to activate hERG channels at or near physiological conditions (i.e., 1×HBSS buffered conditions).
# [4] = system: mallotoxin DMR signal in HEK-hERG cells; format: cell-based, human
# From the text: as §1, §2, §3, §4, §5
# HT29 cells = test: Label-free RWG biosensor (Epic) DMR assay, agonism mode, HT29 cells endogenously expressing hERG; format: cell-based, human
# Protocol: as §2, §3, §4, §6
# HEK293 cells = test: Label-free RWG biosensor (Epic) DMR assay, agonism mode, native HEK293 cells without hERG; format: cell-based, human
# Protocol: as §2, §3
# All studies were carried out at a controlled temperature (28° C.). At least two independent sets of experiments, each with at least three replicates, were performed. […] All dose-dependent responses were analyzed using non-linear regression method with the GraphPad Prism 5. […]
# PKC = test: Effect on PKC activity (data not shown)
# hERG channel [5] = biological target: T1, hERG channel; test: Automated patch clamp recording of hERG current using IonWorks, CHO-hERG cells
# Protocol: CHO—K1 cells stably expressing hERG channel (CHO-hERG) were cultured in T175 flask till about 70% confluent. Cells were washed twice with PBS, then 2.5 ml 0.25% Trypsin/EDTA was mixed with 2.5 ml PBS and added to the T175 flask. Cells were incubated about 2 minutes with the diluted Trypsin/EDTA solution at 37° C., then were continuously incubated about 3 minutes at room temperature. 20 ml fresh medium were added to suspend the cells and transfer to a 50 ml tube. Cells were centrifuged down at 750 rpm for 5 minutes. The extra medium was removed and cells were resuspended in 6 ml External Buffer (137 mM NaCl, 4 mM KCl, 1.8 mM CaCl2, 1 mM MgCl2, 10 mM HEPES, 10 mM glucose, pH 7.4). Then cells were centrifuged again at 450 rpm for another 5 minutes. Finally cells were resuspended in 4 ml the External Buffer, cell number was counted using a hemacytometer. Cell suspension was diluted to 2.5×10^6 cells/ml with the External Buffer. 4 ml of the resuspended cells were added to the cell reservoir in IonWorks. The Internal solution used contains: 40 mM KCl, 100 mM K-Gluconate, 3.2 mM MgCl2, 2 mM CaCl2, 5 mM HEPES, pH 7.25 (adjusted with KOH). 5 mg Amphotericin B from 200 ul DMSO stock was added to 65 ml the Internal solution and mixed well to achieve electrical access to the interior of cells on the patch plate.
# Compounds were prepared from 10 mM DMSO stock and diluted in the External Buffer to make 3× compound solution. […] of the 3× compound solution was transferred to a 384 well plate in Row A, B, C and D. PD11857 (Sigma-Aldrich), a reported hERG channel activator was used as activator positive control (final concentration 30 and 50 μM). hERG blocker dofetilide was used as blocker positive control (final concentration 100 nM). The final DMSO concentration in the IonWorks Quattro PatchPlate PPC plate (Cat#9000-0902, Molecular Devices) was 0.5%. Final compound concentration was 50 μM. Each compound was added to four wells of one PPC plate.
# hERG currents were recorded on IonWorks Quattro (Molecular Devices). To record hERG current, the cells were clamped at −80 mV initially, then followed by a 5-s depolarization at +40 mV to activate the channels. Tail currents were measured during an ensuing return to −35 mV. Data analysis were done using IonWorks Quttro® System Software version 2.0.4.4. Data from wells with seal resistance less than 50 MΩ or hERG tail currents less than 0.1 nA were filtered out. […] Inhibitor hits were selected if hERG tail currents ratio (post/pre-compound) is less than mean-2SD of the average DMSO control.
# To record hERG current, the cells were clamped at −80 mV initially, then followed by a 5-s depolarization at +40 mV to activate the channels (phase a in FIG. 10A). Tail currents were measured during an ensuing return to −35 mV for 2 seconds (phase b in FIG. 10A). Final holding potential at −70 mV (phase c in FIG. 10B).
# phosphodiesterase 4 = test: Effect on phosphodiesterase 4 activity (data not shown)
# [6] = compound at 10 micromolar, mallotoxin 16 micromolar
# [7] = 16 μM mallotoxin, blockers dose-dependent (30 μM, 30 min pretreatment in FIG. 8A)
# T1 sequence (Q12809 whole entry): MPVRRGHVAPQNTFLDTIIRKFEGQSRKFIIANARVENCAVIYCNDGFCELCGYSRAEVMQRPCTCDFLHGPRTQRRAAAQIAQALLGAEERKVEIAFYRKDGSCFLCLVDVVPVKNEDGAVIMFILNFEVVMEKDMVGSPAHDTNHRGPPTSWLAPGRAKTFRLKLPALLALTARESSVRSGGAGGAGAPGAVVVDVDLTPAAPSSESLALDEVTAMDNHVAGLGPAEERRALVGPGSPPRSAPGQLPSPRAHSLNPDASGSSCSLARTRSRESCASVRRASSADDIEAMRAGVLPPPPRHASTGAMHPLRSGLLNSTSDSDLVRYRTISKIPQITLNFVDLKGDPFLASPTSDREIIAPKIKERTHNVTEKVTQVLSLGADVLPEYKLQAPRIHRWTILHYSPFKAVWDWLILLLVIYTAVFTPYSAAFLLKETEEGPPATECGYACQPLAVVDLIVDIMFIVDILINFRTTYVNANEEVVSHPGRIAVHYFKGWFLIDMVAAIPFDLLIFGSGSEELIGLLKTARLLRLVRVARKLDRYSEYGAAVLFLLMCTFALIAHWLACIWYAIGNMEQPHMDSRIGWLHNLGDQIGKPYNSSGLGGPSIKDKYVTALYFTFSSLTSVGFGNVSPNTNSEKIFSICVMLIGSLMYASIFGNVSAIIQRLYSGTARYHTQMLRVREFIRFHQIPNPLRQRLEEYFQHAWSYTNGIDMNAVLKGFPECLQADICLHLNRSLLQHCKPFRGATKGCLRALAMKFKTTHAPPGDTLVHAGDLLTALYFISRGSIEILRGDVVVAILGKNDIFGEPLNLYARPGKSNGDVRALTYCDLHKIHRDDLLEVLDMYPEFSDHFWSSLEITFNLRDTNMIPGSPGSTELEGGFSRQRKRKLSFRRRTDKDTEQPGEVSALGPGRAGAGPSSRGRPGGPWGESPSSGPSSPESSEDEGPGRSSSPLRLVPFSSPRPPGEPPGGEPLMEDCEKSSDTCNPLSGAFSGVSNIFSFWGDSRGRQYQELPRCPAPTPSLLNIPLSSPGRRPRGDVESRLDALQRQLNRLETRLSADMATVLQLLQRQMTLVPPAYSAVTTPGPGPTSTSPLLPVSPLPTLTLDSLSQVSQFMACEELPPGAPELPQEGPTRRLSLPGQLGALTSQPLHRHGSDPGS
smiles,measurement,setting,value
N#CC(C#N)=Cc1ccc([N+](=O)[O-])c(O)c1 [AG-126],modulation of the mallotoxin DMR signal in HT29 cells,[1]; [6],only partially attenuated
same,"effect on hERG ion flux (Rb+ flux, FIG. 6)",hERG channel [2],little or no impact; also recorded: non-effector in hERG ion flux
same,hERG pathway activity class by label-free biosensor,[3],"hERG pathway activator, specifically in the endogenous hERG channel complex in HT29"
O=C(Nc1cc(C(F)(F)F)ccc1O)Nc1cc(C(F)(F)F)ccc1O [NS1643],DMR signal in HEK-hERG cells,"HEK-hERG cells; concentration not given, data not shown",induced a detectable DMR signal
COc1cc(N)c(Cl)cc1C(=O)NC1CCN(CCCOc2ccc(F)cc2)CC1OC (stereo not shown) [cisapride],effect of pretreatment on the mallotoxin DMR signal in HEK-hERG cells,[4],dose-dependent suppression
O=C(O)c1cc(-c2ccc(F)cc2F)ccc1O [diflunisal],modulation of the mallotoxin DMR signal in HT29 cells,[1]; [6],completely desensitized
same,"score of modulation index in coordination, HEK-hERG coordinate",[4]; human,1
same,Rb+ signal in HEK-hERG cells,"hERG channel [2]; 5 mM KCl, compound at 10 or 50 μM",only at 50 μM triggered a detectable increase
same,"effect on hERG ion flux (Rb+ flux, FIG. 6)",hERG channel [2],weak hERG ion flux activator
same,hERG pathway activity class by label-free biosensor,[3],hERG pathway activator
O=C(O)c1cccnc1Nc1cccc(C(F)(F)F)c1 [niflumic acid],hERG pathway activity class by label-free biosensor,[3],hERG pathway activator
CC(C)(O)[C@H]1O[C@H]2CC[C@@]3(C)[C@@](O)(CC[C@H]4Cc5c([nH]c6ccccc56)[C@@]43C)C2=CC1=O [paxilline],effect of pretreatment on the mallotoxin DMR signal in HEK-hERG cells,[4]; [7],no effect
C=C(C)[C@H]1O[C@H]2CC[C@@]3(C)[C@@](O)(CC[C@H]4[C@@H]5OC(C)(C)[C@H]6C[C@@H]7C(=C)Cc8c(Cl)cc9[nH]c(c5c9c8[C@@]76O)[C@@]43C)[C@@]23O[C@H]3[C@H]1O [penitrem A],effect of pretreatment on the mallotoxin DMR signal in HEK-hERG cells,[4]; [7],no effect
O=C1NCCN1CCN1CCC(c2cn(-c3ccc(F)cc3)c3ccc(Cl)cc23)CC1 [sertindole],modulation of the mallotoxin DMR signal in HT29 cells,"[1]; dose dependent, concentrations not given",attenuated
same,DMR signal in HT29 cells,HT29 cells,did not trigger any DMR signals
same,DMR signal in HEK293 cells,HEK293 cells,did not trigger any DMR signals
same,DMR signal in HEK-hERG cells,HEK-hERG cells,did not trigger any DMR signals
N#CC(C#N)=C(N)/C(C#N)=C/c1cc(O)c(O)c(O)c1 [tyrphostin 51],modulation of the mallotoxin DMR signal in HT29 cells,[1]; [6],only partially attenuated
same,DMR signal in HEK-hERG cells,HEK-hERG cells; compound at 10 μM,robust but different DMR signals
same,"effect on hERG ion flux (Rb+ flux, FIG. 6)",hERG channel [2],little impact; also recorded: weak hERG ion flux activator
same,hERG pathway activity class by label-free biosensor,[3],hERG pathway activator
same,effect on activity of PKC,PKC,suppresses the activity
same,effect on hERG tail current,"hERG channel [5]; 50 μM, tail current at return to −35 mV",significantly suppressed
same,effect on hERG current,hERG channel [5]; final compound concentration 50 μM,hERG current inhibitor
same,effect on activity of phosphodiesterase 4,phosphodiesterase 4,suppresses the activity
